Source: patent publication US20180303810A1, “Nimodipine Water-Soluble Derivative, And Preparation Method And Use Thereof” (Guangzhou Henovcom Bioscience Co., Ltd., priority 2015, published 2018)
In brackets after ≈: the same amount, converted by molar mass. Read-outs that look alike come from different tables or passages of the source.

How the values were obtained:
Solubility in water = format: physicochemical; settings: pure water, thermodynamic from solid
Experimental: The compound sample prepared according to the above examples was accurately weighed in an appropriate amount, and pure water was added dropwise with a microsyringe while shaking until the solution became clear. The amounts of the sample and pure water were recorded and converted into mg/mL, as the solubility of the sample. The result was shown in the following table, and the original drug, i.e. Nimodipine, was used as a control.

[1] = Release rate into plasma (conversion into Nimodipine); format: in vitro ADME; settings: rat, rat anticoagulated plasma, 37° C., HPLC
Experimental: A portion of compound 6 was throughly mixed with rat anticoagulated plasma and incubated at 37° C. The drug was extracted with acetonitrile at different time points for HPLC analysis.
The compound sample prepared according to the above examples was dissolved in brine in an appropriate amount to formulate into a stock solution between 0.3 and 0.4 mg/mL. 20 μL of stock solution was added into the rat anticoagulated plasma previously incubated at 37° C. for 2 mins, which were throughly mixed, and incubated at 37° C. 100 μL of samples were taken at different time points, and an equal amount of acetonitrile was added to precipitate proteins, then centrifugated and the supernatant was sampled for HPLC analysis.

[2] = read-out: release rate into plasma t1/2
[3] = water at room temperature, read-out: solubility in water
[4] = read-out: half-life for converting compound into Nimodipine in blood (converted)

Work on `COCCOC(=O)C1=C(C)N(C(=O)OC(C)OC(=O)CCCN)C(C)=C(C(=O)OC(C)C)C1c1cccc([N+](=O)[O-])c1.Cl` (centres unmarked) [Compound 28] yielded a solubility (Solubility in water; read-out: solubility) of over 50 mg/mL and a half-life [1, 2] of under 0.5 h.
In the case of `COCCOC(=O)C1=C(C)N(C(=O)OCOC(=O)[C@@H](N)CC(C)C)C(C)=C(C(=O)OC(C)C)C1c1cccc([N+](=O)[O-])c1.Cl` (some centres unmarked) [Compound 20], the solubility (Solubility in water; read-out: solubility) is reported as over 50 mg/mL and the half-life [1, 2] is reported as under 0.5 h.
Compound `COCCOC(=O)C1=C(C)NC(C)=C(C(=O)OC(C)C)C1c1cccc([N+](=O)[O-])c1` (centres unmarked) [Nimodipine] has a solubility (Solubility in water; read-out: solubility) of 0.003 mg/mL (≈ 0.00717 mM).
For `COCCOC(=O)C1=C(C)N(C(=O)OCOC(=O)CC2CCNCC2)C(C)=C(C(=O)OC(C)C)C1c1cccc([N+](=O)[O-])c1.Cl` (centres unmarked) [Compound 38], the solubility (Solubility in water; read-out: solubility) was over 50 mg/mL and the half-life [1, 2] was under 0.5 h.
Compound `CNCC(=O)OCOC(=O)N1C(C)=C(C(=O)OCCOC)C(c2cccc([N+](=O)[O-])c2)C(C(=O)OC(C)C)=C1C.Cl` (centres unmarked) [Compound 16] has a solubility (Solubility in water; read-out: solubility) of over 50 mg/mL and a half-life [1, 2] of under 0.5 h.
For `COCCOC(=O)C1=C(C)N(C(=O)OCOC(=O)CC[C@H](N)C(N)=O)C(C)=C(C(=O)OC(C)C)C1c1cccc([N+](=O)[O-])c1.Cl` (some centres unmarked) [Compound 41], the solubility (Solubility in water; read-out: solubility) was over 50 mg/mL and the half-life [1, 2] was under 0.5 h.
For `COCCOC(=O)C1=C(C)N(C(=O)OC(C)OC(=O)/C=C/C(=O)[O-])C(C)=C(C(=O)OC(C)C)C1c1cccc([N+](=O)[O-])c1.[K+]` (centres unmarked) [Compound 24], the solubility (Solubility in water; read-out: solubility) was over 50 mg/mL and the half-life [1, 2] was under 1 h.
With `COCCOC(=O)C1=C(C)N(C(=O)OCOC(=O)[C@H](C)N)C(C)=C(C(=O)OC(C)C)C1c1cccc([N+](=O)[O-])c1.Cl` (some centres unmarked) [Compound 18] the solubility (Solubility in water; read-out: solubility) was over 50 mg/mL and the half-life [1, 2] was under 0.5 h.
For `COCCOC(=O)C1=C(C)N(C(=O)OCOP(=O)(O)O)C(C)=C(C(=O)OC(C)C)C1c1cccc([N+](=O)[O-])c1` (centres unmarked) [Compound 8], the solubility (Solubility in water; read-out: solubility) was over 50 mg/mL, the solubility (Solubility in water; [3]) was 105 mg/mL (≈ 183 mM) and the half-life [1, 4] was about 1.5 h. It also gave a half-life [1, 2] of under 1.5 h.
With `COCCOC(=O)C1=C(C)N(COP(=O)(O)O)C(C)=C(C(=O)OC(C)C)C1c1cccc([N+](=O)[O-])c1` (centres unmarked) [Compound 12] the solubility (Solubility in water; read-out: solubility) was over 50 mg/mL, the solubility (Solubility in water; [3]) was 80 mg/mL (≈ 151 mM) and the half-life [1, 4] was under 0.5 h. For the same compound, the half-life [1, 2] was under 0.5 h.
Compound `COCCOC(=O)C1=C(C)N(C(=O)OCOC(=O)C2CCNCC2)C(C)=C(C(=O)OC(C)C)C1c1cccc([N+](=O)[O-])c1.Cl` (centres unmarked) [Compound 32] has a solubility (Solubility in water; read-out: solubility) of over 50 mg/mL and a half-life [1, 2] of under 0.5 h.
`COCCOC(=O)C1=C(C)N(C(=O)OCOC(=O)/C=C/C(=O)O)C(C)=C(C(=O)OC(C)C)C1c1cccc([N+](=O)[O-])c1` (centres unmarked) [Compound 6] gave a solubility (Solubility in water; read-out: solubility) of over 50 mg/mL, a solubility (Solubility in water; [3]) of 120 mg/mL (≈ 203 mM) and a half-life [1, 4] of about 1.5 h. For the same compound, the half-life [1, 2] was about 1.5 h.
`COCCOC(=O)C1=C(C)N(C(=O)OCOC(=O)/C=C/C(=O)[O-])C(C)=C(C(=O)OC(C)C)C1c1cccc([N+](=O)[O-])c1.[Na+]` (centres unmarked) [Compound 39] showed a solubility (Solubility in water; read-out: solubility) of over 50 mg/mL and a half-life [1, 2] of under 1 h.
`COCCOC(=O)C1=C(C)N(C(=O)OCOC(=O)CCN)C(C)=C(C(=O)OC(C)C)C1c1cccc([N+](=O)[O-])c1.Cl` (centres unmarked) [Compound 26] showed a solubility (Solubility in water; read-out: solubility) of over 50 mg/mL and a half-life [1, 2] of under 0.5 h.
Compound `COCCOC(=O)C1=C(C)N(C(=O)OCOC(=O)CCCN)C(C)=C(C(=O)OC(C)C)C1c1cccc([N+](=O)[O-])c1.Cl` (centres unmarked) [Compound 30] has a solubility (Solubility in water; read-out: solubility) of over 50 mg/mL and a half-life [1, 2] of under 0.5 h.
Work on `COCCOC(=O)C1=C(C)N(C(=O)OC(C)OC(=O)[C@H](C)N)C(C)=C(C(=O)OC(C)C)C1c1cccc([N+](=O)[O-])c1.Cl` (some centres unmarked) [Compound 23] yielded a solubility (Solubility in water; read-out: solubility) of over 50 mg/mL and a half-life [1, 2] of under 0.5 h.
Work on `COCCOC(=O)C1=C(C)N(C(=O)OCOC(=O)[C@@H](N)CCCCN)C(C)=C(C(=O)OC(C)C)C1c1cccc([N+](=O)[O-])c1` (some centres unmarked) [Compound 9] yielded a solubility (Solubility in water; read-out: solubility) of over 50 mg/mL, a solubility (Solubility in water; [3]) of 230 mg/mL (≈ 371 mM) and a half-life [1, 4] of about 2.5 h. For the same compound, the half-life [1, 2] was about 2.5 h.
